Laboratory results: patent publication US20240092744A1, “TRICYCLIC COMPOUND, AND PREPARATION METHOD THEREFOR AND MEDICAL USE THEREOF” (THE NATIONAL INSTITUTES OF PHARMACEUTICAL R&D CO., LTD., priority 2020, published 2024)

Assay: Determination of aldehyde capture rate (nonenal as model aldehyde, HPLC quantification)
Settings: for Aldehyde consumption (100%): 0.05 mM compound, 0.025 mM nonenal, room temperature; for Capture rate (slope of the capture curve per unit time): higher absolute value of the slope = higher capture rate
Protocol: In the aldehyde capture test disclosed in the present invention, the stable lipid metabolite, nonenal, was used as the model aldehyde to react with the compound of the Example. The specific protocol was as follows.
0.05 mM of the compounds of the Examples of the present invention were precisely weighed respectively and dissolved in 1.2 mL of a mixed solution (v/v=1:1) of triolein (Aladdin, G105172-5g) and linoleic acid (Aladdin, L100442-25g), respectively. 2.5 mL of PBS (Solarbio, P1020) solution containing 20% Captisol® (Aladdin, Cl25030-25 g) was added, and the solution was stirred at room temperature overnight. After the example compound was completely dissolved, 0.025 mM nonenal (Sigma, 255653-5G) was added, and the solution was stirred vigorously at room temperature. […] The solution was mixed vigorously by vortex for 2 minutes, and centrifuged at a low speed of 1000 r/min for 3 minutes. The supernatant was transferred to an injection vial. The nonenal in the reaction mixture was analyzed quantitatively by high performance liquid chromatography. The adduct resulted from the example compound of the present invention and nonenal was analyzed qualitatively by high performance liquid chromatography-mass spectrometry.
Liquid Chromatograph: Waters I Class;
Column: ACQUITY UPLC HSS T3 1.8 μm;
Column temperature: 40° C.;
Liquid chromatography condition: mobile phase A: acetonitrile containing 0.1% formic acid; B: water containing 0.1% formic acid;
Injection volume: 0.5 mL.
Gradient of the mobile phases: […]
In the developed detection method, the retention time of the model aldehyde nonenal was 2.42 minutes. • Mass spectrometry conditions: • Mass spectrometer: Waters TQ-S micro • Ion source: ESI^+ • Capillary voltage: 0.5 kV • Cone voltage: 10V • Source temperature: 150° C. • Degassing temperature: 500° C., degassing flow: 1000 L/Hr • SIM mode • m/z: 225.24 [(mExample 1−OH)+H]^+, 365.42 [madduct 1+H]^+
The time-varying diagram of the capture reaction of the compounds of the examples of the present invention to nonenal is shown in FIG. 1.

Compound	Aldehyde consumption (100%) (135 minutes) [%]	Capture rate (slope of the capture curve per unit time) (135 minutes)	Aldehyde consumption (100%) (180 minutes) [%]	Capture rate (slope of the capture curve per unit time) (180 minutes)
CC(C)(O)c1nc2oc3ccccc3c2cc1N [Example 1, 2-(3-Aminobenzofuro[2,3-b]pyridin-2-yl)propan-2-ol]	24.57	−0.13	34.69	−0.14
Cn1c2ccccc2c2cc(N)c(C(C)(C)O)cc21 [Example 3, 2-(3-Amino-9-methyl-9H-carbazol-2-yl)propan-2-ol]	0.11	−0.01	1.38	−0.02
CN1c2ccccc2Oc2cc(C(C)(C)O)c(N)cc21 [Example 5, 2-(2-Amino-10-methyl-10H-phenoxazin-3-yl)propan-2-ol]	15.06	−0.14	19.05	−0.10
CN1c2ccccc2Oc2cc(N)c(C(C)(C)O)cc21 [Example 6, 2-(3-Amino-10-methyl-10H-phenoxazin-2-yl)propan-2-ol]	5.40	−0.08	11.94	−0.07
CC(C)(O)c1cc2oc3ccccc3c2cc1N [Example 8, 2-(2-Aminodibenzo[b,d]furan-3-yl)propan-2-ol]	8.30	−0.22	17.80	−0.07
CC(C)(O)c1nc2c(cc1N)Oc1ccccc1O2 [Example 9, 2-(3-Aminobenzo[5,6][1,4]dioxino[2,3-b]pyridin-2-yl)propan-2-ol]	0.10	−0.01	0.10	−0.04
CC(C)(O)c1nc2c(cc1N)oc1ccccc12 [Example 10, 2-(3-Aminobenzofuro[3,2-b]pyridin-2-yl)propan-2-ol]	9.15	−0.08	9.48	−0.06
Cn1c2ccccc2c2nc(C(C)(C)O)c(N)cc21 [Example 11, 2-(3-Amino-5-methyl-5H-pyrido[3,2-b]indol-2-yl)propan-2-ol]	7.71	−0.06	12.33	−0.08
Cn1c2cc(Cl)ccc2c2cc(N)c(C(C)(C)O)nc21 [Example 12, 2-(3-Amino-7-chloro-9-methyl-9H-pyrido[2,3-b]indol-2-yl)propan-2-ol]	17.18	−0.24	30.31	−0.16
Cn1c2ccc(Cl)cc2c2cc(N)c(C(C)(C)O)nc21 [Example 13, 2-(3-Amino-6-chloro-9-methyl-9H-pyrido[2,3-b]indol-2-yl)propan-2-ol]	6.03	−0.12	14.83	−0.08
CC(C)(O)c1cc2c(cc1N)C(C)(C)c1ccccc1-2 [Example 14, 2-(2-Amino-9,9-dimethyl-9H-fluoren-3-yl)propan-2-ol]	36.30	−0.19	44.51	−0.28
CC(C)(O)c1cc2c(cc1N)Oc1ncccc1O2 [Example 15, 2-(8-Aminobenzo[5,6][1,4]dioxino[2,3-b]pyridin-7-yl)propan-2-ol]	23.50	−0.15	30.00	−0.17
